Columns and labels:
UniProt Q68DV7 = target: T1, UniProt Q68DV7 (Homo sapiens, UniProt Q68DV7); experiment: Cysteine liganding, probe competition; format: binding
T1 construct: 200 μL of lysate containing 5 mg/ml proteome was treated with 2 μL of 100× compound stock; endogenous in cells
T1 sequence (Q68DV7 24-783): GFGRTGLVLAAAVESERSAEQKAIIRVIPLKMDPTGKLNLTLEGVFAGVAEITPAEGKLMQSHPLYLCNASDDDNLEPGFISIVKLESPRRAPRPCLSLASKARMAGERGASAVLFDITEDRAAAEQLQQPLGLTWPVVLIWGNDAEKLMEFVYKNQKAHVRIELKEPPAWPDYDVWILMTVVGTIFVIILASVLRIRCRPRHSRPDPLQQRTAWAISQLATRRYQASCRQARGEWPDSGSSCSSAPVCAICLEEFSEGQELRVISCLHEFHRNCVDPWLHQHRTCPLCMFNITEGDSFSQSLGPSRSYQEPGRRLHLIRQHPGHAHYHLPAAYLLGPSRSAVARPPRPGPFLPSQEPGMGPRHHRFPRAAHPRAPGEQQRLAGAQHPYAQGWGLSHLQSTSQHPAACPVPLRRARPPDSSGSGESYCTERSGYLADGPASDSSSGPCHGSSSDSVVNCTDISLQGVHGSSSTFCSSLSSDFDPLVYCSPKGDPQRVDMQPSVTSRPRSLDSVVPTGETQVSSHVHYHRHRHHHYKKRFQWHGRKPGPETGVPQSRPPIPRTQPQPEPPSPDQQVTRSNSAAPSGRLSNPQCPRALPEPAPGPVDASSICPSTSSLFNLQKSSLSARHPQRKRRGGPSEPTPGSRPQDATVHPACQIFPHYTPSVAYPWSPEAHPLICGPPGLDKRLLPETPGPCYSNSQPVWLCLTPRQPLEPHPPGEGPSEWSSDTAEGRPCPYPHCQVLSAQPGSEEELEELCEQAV
Text: (§1) The following 96-well sample prep protocol was used for sample preparation.

UniProt Q13064 = target: T2, UniProt Q13064 (Homo sapiens, UniProt Q13064); experiment: Cysteine liganding, probe competition; format: binding
T2 construct: Cells were resuspended in cold PBS on ice and sonicated with a probe sonicator to achieve lysis; endogenous in cells
T2 sequence (Q13064 1-507): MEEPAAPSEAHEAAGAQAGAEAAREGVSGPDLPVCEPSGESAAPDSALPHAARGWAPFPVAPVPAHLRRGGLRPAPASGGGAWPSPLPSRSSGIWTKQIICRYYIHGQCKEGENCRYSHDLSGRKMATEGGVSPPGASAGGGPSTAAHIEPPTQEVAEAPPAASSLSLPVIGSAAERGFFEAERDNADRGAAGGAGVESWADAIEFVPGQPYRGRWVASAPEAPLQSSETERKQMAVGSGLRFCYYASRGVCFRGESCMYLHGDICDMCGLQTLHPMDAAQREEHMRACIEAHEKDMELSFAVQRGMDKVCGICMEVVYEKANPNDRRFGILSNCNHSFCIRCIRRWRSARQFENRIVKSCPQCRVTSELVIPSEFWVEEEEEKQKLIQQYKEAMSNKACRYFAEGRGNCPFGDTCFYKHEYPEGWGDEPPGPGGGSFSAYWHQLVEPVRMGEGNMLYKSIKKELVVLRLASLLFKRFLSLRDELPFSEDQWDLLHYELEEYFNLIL
Text: as §1

[1] = 500 uM, read-out: percent_inhibition
[2] = 500 uM, read-out: percent inhibition

SMILES | percent_inhibition (UniProt Q68DV7; 100 uM) [%] | inhibition at 100 µM (UniProt Q68DV7; 100 uM, read-out: percent_inhibition) [%] | inhibition at 500 µM (UniProt Q68DV7; [1]) [%] | inhibition at 100 µM (UniProt Q13064; 100 uM, read-out: percent inhibition) [%] | inhibition at 500 µM (UniProt Q13064; [2]) [%] | percent_inhibition (UniProt Q68DV7; 500 uM) [%] | percent inhibition (UniProt Q13064; 500 uM) [%]
COc1ccc2c(c1)CCCN2C(=O)CCl [KB02] | 21 | 13 | 41 | 2 | 37 |  | 
C=CC(=O)N(c1ccccc1)c1ccc(Br)cc1 [KB05] |  |  | 42 |  | 23 | 40 | 
O=C(CCl)Nc1cc(C(F)(F)F)cc(C(F)(F)F)c1 [KBO3] | 7 |  |  |  |  |  | 16
